Laboratory results reported in patent US10870647B2, “Imidazopyridine derivative, method for preparing same, and pharmaceutical composition containing same as active ingredient for preventing or treating cancer” (DAEGU-GYEONGBUK MEDICAL INNOVATION FOUNDATION, priority 2016, dated 2020).

Legend:
Assay in all cases: Kinase selectivity, scanMAX Kinase assay panel (DiscoverX), % control at 1 uM
Assay type in all cases: binding
[1] = molecular target: T1, scanMAX Kinase assay panel (Homo sapiens, UniProt P43405); details: SYK; 1 uM; read-out: Percent Control (%)
T1 construct: purchased DiscoverX
How it was run: (§1)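 Each kinase was first exposed to the test compound at 1 uM in DMSO. Signal was then normalised to positive and negative controls to give % control. Finally, any enzyme showing <35% control was judged inhibited.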

[2] = molecular target: T2, scanMAX Kinase assay panel (Homo sapiens, UniProt P51955); details: NEK2; 1 uM; read-out: Percent Control (%)
T2 construct: purchased DiscoverX
T2 sequence (P51955 1-445): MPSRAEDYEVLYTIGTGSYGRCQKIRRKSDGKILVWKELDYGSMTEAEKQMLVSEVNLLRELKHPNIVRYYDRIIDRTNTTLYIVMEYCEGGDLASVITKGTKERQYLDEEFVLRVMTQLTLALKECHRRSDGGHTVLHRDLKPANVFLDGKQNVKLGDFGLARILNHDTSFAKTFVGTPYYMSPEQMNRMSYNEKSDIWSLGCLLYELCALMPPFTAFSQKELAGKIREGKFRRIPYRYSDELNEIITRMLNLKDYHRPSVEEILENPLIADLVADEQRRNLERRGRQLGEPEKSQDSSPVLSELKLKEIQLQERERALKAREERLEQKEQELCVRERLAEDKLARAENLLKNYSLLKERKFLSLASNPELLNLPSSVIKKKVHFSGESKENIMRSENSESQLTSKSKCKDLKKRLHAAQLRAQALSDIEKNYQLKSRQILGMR
How it was run: as §1

[3] = molecular target: T3, scanMAX Kinase assay panel (Homo sapiens, UniProt Q06187); details: BTK; 1 uM; read-out: Percent Control (%)
T3 construct: purchased DiscoverX
How it was run: as §1

[4] = molecular target: T4, scanMAX Kinase assay panel (Homo sapiens, UniProt Q06418); details: TYRO3; 1 uM; read-out: Percent Control (%)
T4 construct: purchased DiscoverX
T4 sequence (Q06418 41-890): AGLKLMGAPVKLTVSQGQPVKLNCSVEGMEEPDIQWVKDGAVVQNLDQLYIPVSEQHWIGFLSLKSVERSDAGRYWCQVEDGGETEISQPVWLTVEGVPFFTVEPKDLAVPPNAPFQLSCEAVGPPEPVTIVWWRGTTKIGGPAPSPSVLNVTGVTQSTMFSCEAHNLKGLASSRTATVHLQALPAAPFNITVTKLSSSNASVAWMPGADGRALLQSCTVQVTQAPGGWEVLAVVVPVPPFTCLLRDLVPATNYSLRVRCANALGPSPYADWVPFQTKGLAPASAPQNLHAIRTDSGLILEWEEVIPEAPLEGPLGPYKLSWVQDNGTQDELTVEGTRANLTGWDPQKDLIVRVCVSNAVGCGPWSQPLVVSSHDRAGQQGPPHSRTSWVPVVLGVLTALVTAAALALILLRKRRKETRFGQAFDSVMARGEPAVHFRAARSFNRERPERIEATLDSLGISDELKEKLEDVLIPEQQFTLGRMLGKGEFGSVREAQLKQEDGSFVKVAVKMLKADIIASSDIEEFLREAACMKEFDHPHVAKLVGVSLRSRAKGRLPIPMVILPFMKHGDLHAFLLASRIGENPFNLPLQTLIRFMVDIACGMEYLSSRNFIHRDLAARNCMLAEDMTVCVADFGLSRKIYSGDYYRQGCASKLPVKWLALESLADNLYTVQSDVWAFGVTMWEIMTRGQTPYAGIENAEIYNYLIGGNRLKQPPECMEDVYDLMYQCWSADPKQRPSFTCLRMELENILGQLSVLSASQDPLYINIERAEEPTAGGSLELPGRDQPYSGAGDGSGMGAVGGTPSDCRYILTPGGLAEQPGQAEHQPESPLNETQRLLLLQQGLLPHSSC
How it was run: as §1

[5] = molecular target: T5, scanMAX Kinase assay panel (Homo sapiens, UniProt Q15208); details: NDR1; 1 uM; read-out: Percent Control (%)
T5 construct: purchased DiscoverX
How it was run: as §1

[6] = molecular target: T6, scanMAX Kinase assay panel (Homo sapiens, UniProt Q16566); details: CAMK4; 1 uM; read-out: Percent Control (%)
T6 construct: purchased DiscoverX
T6 sequence (Q16566 1-473): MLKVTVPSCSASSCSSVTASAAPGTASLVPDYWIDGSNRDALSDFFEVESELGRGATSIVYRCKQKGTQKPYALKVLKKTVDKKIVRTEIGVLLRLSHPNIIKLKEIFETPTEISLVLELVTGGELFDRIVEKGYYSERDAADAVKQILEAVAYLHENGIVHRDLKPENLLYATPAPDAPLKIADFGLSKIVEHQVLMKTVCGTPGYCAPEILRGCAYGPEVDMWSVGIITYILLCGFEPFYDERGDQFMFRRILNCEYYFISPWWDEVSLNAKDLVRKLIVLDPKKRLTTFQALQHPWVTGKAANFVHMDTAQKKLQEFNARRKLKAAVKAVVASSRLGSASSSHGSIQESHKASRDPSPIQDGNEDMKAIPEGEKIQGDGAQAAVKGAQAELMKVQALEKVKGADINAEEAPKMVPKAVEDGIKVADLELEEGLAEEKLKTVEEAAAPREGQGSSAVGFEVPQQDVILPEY
How it was run: as §1

[7] = molecular target: T7, scanMAX Kinase assay panel (Homo sapiens, UniProt Q99640); details: PKMYT1; 1 uM; read-out: Percent Control (%)
T7 construct: purchased DiscoverX
T7 sequence (Q99640 1-499): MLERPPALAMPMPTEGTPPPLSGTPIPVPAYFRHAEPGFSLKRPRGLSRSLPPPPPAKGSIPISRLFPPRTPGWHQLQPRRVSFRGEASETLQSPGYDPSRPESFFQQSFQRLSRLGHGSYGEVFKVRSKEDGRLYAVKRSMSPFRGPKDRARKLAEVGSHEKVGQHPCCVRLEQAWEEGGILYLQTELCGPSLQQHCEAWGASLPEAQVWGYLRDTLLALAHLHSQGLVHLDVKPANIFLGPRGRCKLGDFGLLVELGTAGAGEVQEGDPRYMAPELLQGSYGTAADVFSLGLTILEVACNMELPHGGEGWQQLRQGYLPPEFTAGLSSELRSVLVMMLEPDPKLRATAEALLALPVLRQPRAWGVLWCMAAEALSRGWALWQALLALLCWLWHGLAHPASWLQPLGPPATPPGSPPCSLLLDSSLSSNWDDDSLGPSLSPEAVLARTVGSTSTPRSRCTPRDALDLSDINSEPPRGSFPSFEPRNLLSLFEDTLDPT
How it was run: as §1

T5 sequence (Q15208 whole entry): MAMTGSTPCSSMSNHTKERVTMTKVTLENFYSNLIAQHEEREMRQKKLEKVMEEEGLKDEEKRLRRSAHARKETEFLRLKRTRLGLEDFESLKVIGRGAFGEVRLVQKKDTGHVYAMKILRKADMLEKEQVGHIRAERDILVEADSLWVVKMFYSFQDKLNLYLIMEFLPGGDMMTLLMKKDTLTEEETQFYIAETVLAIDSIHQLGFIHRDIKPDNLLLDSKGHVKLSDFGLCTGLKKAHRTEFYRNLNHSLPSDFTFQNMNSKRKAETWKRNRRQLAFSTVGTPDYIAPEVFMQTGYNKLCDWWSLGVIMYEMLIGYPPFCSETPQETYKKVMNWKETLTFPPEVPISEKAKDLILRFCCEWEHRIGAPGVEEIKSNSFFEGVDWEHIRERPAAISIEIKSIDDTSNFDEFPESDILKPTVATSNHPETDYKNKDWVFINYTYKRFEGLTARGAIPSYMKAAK
T3 sequence (Q06187 whole entry): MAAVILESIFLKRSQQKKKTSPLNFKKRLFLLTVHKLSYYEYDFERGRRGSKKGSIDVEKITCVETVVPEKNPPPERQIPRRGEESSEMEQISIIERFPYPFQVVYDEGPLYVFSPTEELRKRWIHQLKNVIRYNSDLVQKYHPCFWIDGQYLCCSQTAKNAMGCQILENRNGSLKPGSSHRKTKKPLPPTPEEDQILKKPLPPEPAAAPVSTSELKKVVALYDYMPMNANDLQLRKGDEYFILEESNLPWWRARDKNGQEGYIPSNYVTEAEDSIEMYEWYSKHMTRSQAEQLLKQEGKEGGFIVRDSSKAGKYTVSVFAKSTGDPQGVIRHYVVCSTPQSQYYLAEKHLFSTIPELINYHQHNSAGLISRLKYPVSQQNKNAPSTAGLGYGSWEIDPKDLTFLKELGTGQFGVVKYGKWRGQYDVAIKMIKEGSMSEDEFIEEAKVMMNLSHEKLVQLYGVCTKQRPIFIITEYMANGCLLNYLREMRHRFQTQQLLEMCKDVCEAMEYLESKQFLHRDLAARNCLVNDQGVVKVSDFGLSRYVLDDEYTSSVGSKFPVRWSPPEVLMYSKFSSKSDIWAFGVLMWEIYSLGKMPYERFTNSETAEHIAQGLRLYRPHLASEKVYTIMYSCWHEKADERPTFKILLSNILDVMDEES

Compound	remaining binding at 1 µM [1] [%]	remaining binding at 1 µM [2] [%]	remaining binding at 1 µM [3] [%]	remaining binding at 1 µM [4] [%]	remaining binding at 1 µM [5] [%]	remaining binding at 1 µM [6] [%]	remaining binding at 1 µM [7] [%]
Cc1ccc(C(=O)Nc2ccc(CN3CCN(C)CC3)c(C(F)(F)F)c2)cc1C#Cc1cnc2c(Nc3cnn(C)c3)cccn12 [Example 1, 4-methyl-3-((8-((1-methyl-1H-pyrazol-4-yl)amino)imidazo[1,2-a]pyridin-3-yl)ethynyl)-N-(4-((4-methylpiperazin-1-yl)methyl)-3-(trifluoromethyl)phenyl)benzamide]	2	80	1	21	56	99	93
Cc1cn(-c2cc(NC(=O)c3ccc(C)c(C#Cc4cnc5c(Nc6cnn(C)c6)cccn45)c3)cc(C(F)(F)F)c2)cn1 [Example 12, 4-methyl-N-(3-(4-methyl-1H-imidazol-1-yl)-5-(trifluoromethyl)phenyl)-3-((8-((1-methyl-1H-pyrazol-4-yl)amino)imidazo[1,2-a]pyridin-3-yl)ethynyl)benzamide]	12	100	37	42	98	87	98
Cc1ccc(NC(=O)C2(C(=O)Nc3ccc(F)cc3)CC2)cc1C#Cc1cnc2c(Nc3cnn(C(C)C)c3)cccn12 [Example 78]	78	100	100	95	83	100	90
